The assay has as its target T1, Lethal factor (Bacillus anthracis, UniProt P15917).
T1 sequence (P15917 whole entry): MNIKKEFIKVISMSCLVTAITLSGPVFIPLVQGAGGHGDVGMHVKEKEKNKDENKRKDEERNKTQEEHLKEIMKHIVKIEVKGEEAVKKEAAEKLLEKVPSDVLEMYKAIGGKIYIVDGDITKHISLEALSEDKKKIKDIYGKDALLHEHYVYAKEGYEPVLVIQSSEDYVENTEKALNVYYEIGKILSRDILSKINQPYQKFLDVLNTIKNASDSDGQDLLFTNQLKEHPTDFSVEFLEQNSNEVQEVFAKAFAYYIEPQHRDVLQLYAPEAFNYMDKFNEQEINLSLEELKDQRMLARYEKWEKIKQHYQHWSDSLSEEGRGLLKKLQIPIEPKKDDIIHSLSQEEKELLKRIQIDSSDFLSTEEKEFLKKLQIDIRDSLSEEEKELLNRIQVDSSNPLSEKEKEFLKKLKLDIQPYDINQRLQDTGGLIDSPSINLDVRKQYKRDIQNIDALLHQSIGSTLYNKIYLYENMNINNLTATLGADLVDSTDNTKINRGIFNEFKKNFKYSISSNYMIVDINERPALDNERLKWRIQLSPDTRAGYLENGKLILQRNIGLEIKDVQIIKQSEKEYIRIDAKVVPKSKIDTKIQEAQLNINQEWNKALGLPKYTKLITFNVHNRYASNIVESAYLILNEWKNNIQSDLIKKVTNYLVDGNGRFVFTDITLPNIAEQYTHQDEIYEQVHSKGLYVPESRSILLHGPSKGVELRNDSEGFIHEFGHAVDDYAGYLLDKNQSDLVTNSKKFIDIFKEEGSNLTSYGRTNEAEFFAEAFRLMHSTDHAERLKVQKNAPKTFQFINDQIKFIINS
The experiment in a line: Inhibition of Bacillus anthracis LF by FRET assay. As to conditions: read-out: Ki app.
With `N=C(N)N[C@H]1C[C@@H](NC(=N)N)[C@H](O)C[C@@H]1c1ccc2[nH]c(N)nc2c1`, the Ki was found to be 154 µM.

Turning to `N=C(N)Nc1ccccc1[C@H]1C[C@@H](O)[C@H](NC(=N)N)C[C@@H]1NC(=N)N`, the Ki came to 30.6 µM.

Turning to `N=C(N)Nc1ccc([C@H]2C[C@@H](O)[C@H](NC(=N)N)C[C@@H]2NC(=N)N)c2ccccc12`, the Ki worked out at 31.4 µM.

With `N=C(N)Nc1ccc([C@H]2C[C@@H](O)[C@H](NC(=N)N)C[C@@H]2NC(=N)N)c(NC(=N)N)c1`, the Ki turned out to be 0.6 µM.

For the compound `N=C(N)Nc1ccc(O[C@H]2C[C@@H](Oc3ccc(NC(=N)N)cc3NC(=N)N)[C@H](NC(=N)N)C[C@@H]2NC(=N)N)c(NC(=N)N)c1`, the Ki was 0.065 µM.

Turning to `N=C(N)Nc1ccccc1NC(=O)O[C@H]1C[C@@H](O)[C@H](NC(=N)N)C[C@@H]1NC(=N)N`, the Ki came to 24.8 µM.

Turning to `N=C(N)Nc1ccc([C@H]2C[C@@H](O)[C@H](NC(=N)N)C[C@@H]2NC(=N)N)nc1`, the Ki was 6.6 µM.

For the compound `N=C(N)Nc1cc(NC(=N)N)c2ccccc2c1[C@H]1C[C@@H](O)[C@H](NC(=N)N)C[C@@H]1NC(=N)N`, the Ki was found to be 10.7 µM.

Take `N=C(N)Nc1ccc([C@H]2C[C@@H](O)[C@H](NC(=N)N)C[C@@H]2NC(=N)N)cc1`: the Ki came to 14.9 µM.

On to `Cc1cc(NC(=O)O[C@@H]2C[C@H](Oc3ccc(NC(=N)N)cc3N=C(N)N)[C@@H](N=C(N)N)C[C@H]2N=C(N)N)ccc1F`, for which the Ki turned out to be 0.5 µM.

Turning to `N=C(N)Nc1cccnc1[C@H]1C[C@@H](O)[C@H](NC(=N)N)C[C@@H]1NC(=N)N`, the Ki was 4.1 µM.
